Experimental data as given in US20100222421A1, “Usage of Baicalein in the Preparation of a Pharmaceutical Composition for the Treatment of Traumatic Brain Injury” (National Defense Medical Center, priority 2009, published 2010).

Assays:
Assay type in all cases: in vivo, rat
[1] = Body weight after CCI injury; settings: CCI-injured rats, 30 mg kg^-1 i.p.; P=0.8
Method: (§1) A previously described CCI injury procedure was utilized (Chen et al., 2003). Male Sprague-Dawley rats, which have body weight of 250-300 g, were anaesthetized with sodium pentobarbital (i.p.; 50 mgkg^−1; Rhone Merieux, Harlow, UK) and placed in a stereotaxic frame. A 5-mm craniotomy was performed over the left parietal cortex, centered on the coronal suture and 3 mm lateral to the sagittal suture. Considerable care was taken to avoid injury to the underlying dura. Injury was made using a pneumatic piston with a rounded metal tip (2.5 mm diameter) that was angled 22.5° C. to the vertical so that the tip was perpendicular with the brain surface at the centre of the craniotomy. A velocity of 4 ms^−1 and a deformation depth 2 mm below the dura were used. The bone flap was immediately replaced and sealed, and the scalp was closed with sutures. Body temperature was monitored throughout the surgery by a rectal probe; temperature was maintained at 37.0±0.5° C. using a heated pad. Rats were placed in a heated cage to maintain body temperature, while recovering from anaesthesia.
Baicalein (30 mg kg^−1) dissolved in 10% dimethyl sulphoxide (0.25-0.3 mL) or a corresponding volume of vehicle (10% dimethyl sulphoxide) was administered i.p. immediately following injury or daily for 4 days (immediately, 25, 49 and 73 h) after injury. […]

[2] = test system: rats with controlled cortical impact (CCI) injury; test: Cortical contusion volume, cresyl violet staining
Method: A previously described CCI injury procedure was utilized (Chen et al., 2003). Male Sprague-Dawley rats, which have body weight of 250-300 g, were anaesthetized with sodium pentobarbital (i.p.; 50 mgkg^−1; Rhone Merieux, Harlow, UK) and placed in a stereotaxic frame. A 5-mm craniotomy was performed over the left parietal cortex, centered on the coronal suture and 3 mm lateral to the sagittal suture. Considerable care was taken to avoid injury to the underlying dura. Injury was made using a pneumatic piston with a rounded metal tip (2.5 mm diameter) that was angled 22.5° C. to the vertical so that the tip was perpendicular with the brain surface at the centre of the craniotomy. A velocity of 4 ms^−1 and a deformation depth 2 mm below the dura were used. The bone flap was immediately replaced and sealed, and the scalp was closed with sutures. Body temperature was monitored throughout the surgery by a rectal probe; temperature was maintained at 37.0±0.5° C. using a heated pad. Rats were placed in a heated cage to maintain body temperature, while recovering from anaesthesia. Baicalein (30 mg kg^−1) dissolved in 10% dimethyl sulphoxide (0.25-0.3 mL) or a corresponding volume of vehicle (10% dimethyl sulphoxide) was administered i.p. immediately following injury or daily for 4 days (immediately, 25, 49 and 73 h) after injury. Behaviour testing using the rotarod, tactile adhesive removal, mNSS and beam walk tests was performed at 28 hours as well as 4, 7, 14, 21 and 28 days post-injury. At 14 and 28 days, the animals were killed, perfused intravascularly and their brains were processed with cresyl violet staining to assess contusion volume (n=8 for each group). […] Following with terminal anaesthesia, rats were killed by transcardial perfusion first with phosphate-buffered saline (PBS) and then with 4% paraformaldehyde and their tissues were processed on day 1 (for FJB staining and cytokine immunohistochemistry), day 14 (for cresyl violet histology) and day 28 (for cresyl violet histology), post-injury. All solutions were maintained at pH 7.4 and 4° C. Brains were removed and post-fixed in 4% paraformaldehyde overnight and transferred to PBS containing 30% sucrose and 0.1% sodium azide, manufactured by Sigma Chemical Co. located at St Louis, Mo., USA, for cryoprotection. Coronal sections were cut in a cryostat at […] from the level of the olfactory bulbs to the visual cortex. Every 50th slice was used for cresyl violet histology, FJB staining or immunohistochemistry. The distance between similarly stained sections within each group was thus […], with approximately 20 sections per group. […] To measure contusion volumes, cresyl violet-stained sections were digitized and analyzed using a ×1.5 objective and computer image analysis system (Scion Image, Beta Release 4.0.2; Scion Corp., Frederick, Md., USA). […] Contusion area was calculated from all images of cresyl violet-stained sections that contained contused brain; volume measurement was computed by summation of areas multiplied by interslice distance (500 μm).

[3] = test system: IL-6 protein; test: ELISA, IL-6 protein after CCI injury; settings: single-dose 30 mg kg^-1 i.p.; ipsilateral cortex, 1 day post-injury; P<0.01
Method: as §1, with “The bone flap was immediately replaced and sealed, and the scalp was closed with sutures.” left out, “Rats were placed in a heated cage to maintain body temperature, while recovering from anaesthesia.” left out
Single-dose baicalein (30 mg kg^−1) or a corresponding volume of vehicle was administered i.p. immediately following injury. […] Testing after injury was as follows: (1) real-time quantitative RT-PCR analysis for TNF-α, IL-1β and IL-6 mRNA expression at 6 h post-injury (n=7 for each group); (2) FluoroJade B (FJB) staining, TNF-α, IL-1β and IL-6 immunohistochemistry, as well as ELISA at 24 h post-injury to assess degenerative neurons and to determine cytokine expression (n=7 for each group). […]

O=c1cc(-c2ccccc2)oc2cc(O)c(O)c(O)c12 [baicalein]
body weight, baicalein versus vehicle [1]: no significant difference | contusion volume, single-dose versus multiple-dose groups ([2]; 30 mg kg^-1 i.p., days 14 and 28, P>0.05): no significant difference | reduction of contusion volume versus vehicle ([2]; multiple doses 30 mg kg^-1 i.p. daily for 4 days, 14 days post-injury): 42% | reduction of contusion volume versus vehicle ([2]; multiple doses 30 mg kg^-1 i.p. daily for 4 days, 28 days post-injury): 42% | reduction of contusion volume versus vehicle ([2]; single dose 30 mg kg^-1 i.p., 14 days post-injury): 32% | reduction of contusion volume versus vehicle ([2]; single dose 30 mg kg^-1 i.p., 28 days post-injury): 34% | IL-6 protein concentration, % of concentration in vehicle-treated rats [3]: 67%
